In this test the target is hT2R8 (Homo sapiens (Human), UniProt Q9NYW2). In words: hT2R8 antagonist high-throughput FLIPR assay, stable cell line with G16g44, agonist andrographolide. Format: cell-based. The note with it: table after Example 12-37; read-out: hT2R8 IC50. The gist of the method:
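HEK293 cells stably co-expressing hT2R8 and chimeric G16g44, read on FLIPR. Test compounds added together with andrographolide (200 μM), which drives the receptor to 70–80% of maximal activity; antagonism seen as reduced agonist response.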
Chain of hT2R8 (Q9NYW2 whole entry): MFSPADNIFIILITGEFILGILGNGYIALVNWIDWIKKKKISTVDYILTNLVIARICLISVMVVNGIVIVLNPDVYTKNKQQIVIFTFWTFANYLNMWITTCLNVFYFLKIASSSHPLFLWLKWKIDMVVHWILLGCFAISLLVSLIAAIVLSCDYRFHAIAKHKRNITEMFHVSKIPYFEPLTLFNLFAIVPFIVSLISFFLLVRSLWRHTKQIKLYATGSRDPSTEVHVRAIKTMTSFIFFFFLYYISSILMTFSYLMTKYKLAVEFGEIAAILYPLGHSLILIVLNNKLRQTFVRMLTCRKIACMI
For `Cc1noc(C)c1Cn1cc(N2C(=O)N(Cc3ccc(O)cc3)C(C)(C)C2=O)cn1` [Example 12-38, 3-(1-((3,5-dimethylisoxazol-4-yl)methyl)-1H-pyrazol-4-yl)-1-(4-hydroxybenzyl)-5,5-dimethylimidazolidine-2,4-dione], the IC50 (as a rule, the midpoint of a concentration-inhibition curve) amounted to 70 nM.

For the compound `Cc1noc(C)c1Cn1cc(N2C(=O)N(Cc3ccccc3O)C(C)(C)C2=O)cn1` [Example 12-39, 3-(1-((3,5-dimethylisoxazol-4-yl)methyl)-1H-pyrazol-4-yl)-1-(2-hydroxybenzyl)-5,5-dimethylimidazolidine-2,4-dione], the IC50 was found to be 70 nM.

In the case of `COc1cccc(CN2C(=O)N(c3cnn(Cc4c(C)noc4C)c3)C(=O)C2(C)C)n1` [Example 12-40, 3-(1-((3,5-dimethylisoxazol-4-yl)methyl)-1H-pyrazol-4-yl)-1-((6-methoxypyridin-2-yl)methyl)-5,5-dimethylimidazolidine-2,4-dione], the half-inhibitory concentration (IC50) is 80 nM.

Turning to `Cc1noc(C)c1Cn1cc(N2C(=O)N(Cc3cccc(C#N)c3)C(C)(C)C2=O)cn1` [Example 12-42, 3-((3-(1-((3,5-dimethylisoxazol-4-yl)methyl)-1H-pyrazol-4-yl)-5,5-dimethyl-2,4-dioxoimidazolidin-1-yl)methyl)benzonitrile], the concentration for half-maximal inhibition (IC50) stood at 90 nM.

`Cc1noc(C)c1Cn1cc(N2C(=O)N(Cc3cccc(O)c3O)C(C)(C)C2=O)cn1` [Example 12-43, 1-(2,3-dihydroxybenzyl)-3-(1-((3,5-dimethylisoxazol-4-yl)methyl)-1H-pyrazol-4-yl)-5,5-dimethylimidazolidine-2,4-dione]: the IC50 came out at 100 nM.

Consider `Cc1noc(C)c1Cn1cc(N2C(=O)N(Cc3c(F)cccc3F)C(C)(C)C2=O)cn1` [Example 12-44, 1-(2,6-difluorobenzyl)-3-(1-((3,5-dimethylisoxazol-4-yl)methyl)-1H-pyrazol-4-yl)-5,5-dimethylimidazolidine-2,4-dione], for which the IC50 is 100 nM.

In the case of `Cc1noc(C)c1Cn1cc(N2C(=O)N(Cc3ccccc3F)C(C)(C)C2=O)cn1` [Example 12-45, 3-(1-((3,5-dimethylisoxazol-4-yl)methyl)-1H-pyrazol-4-yl)-1-(2-fluorobenzyl)-5,5-dimethylimidazolidine-2,4-dione], the IC50 was 110 nM.

With `COc1ccc(CCN2C(=O)N(c3cnn(Cc4c(C)noc4C)c3)C(=O)C2(C)C)cc1OC` [Example 12-49, 1-(3,4-dimethoxyphenethyl)-3-(1-((3,5-dimethylisoxazol-4-yl)methyl)-1H-pyrazol-4-yl)-5,5-dimethylimidazolidine-2,4-dione], the IC50 was found to be 130 nM.

`Cc1noc(C)c1Cn1cc(N2C(=O)N(CCc3cccc(F)c3)C(C)(C)C2=O)cn1` [Example 12-50, 3-(1-((3,5-dimethylisoxazol-4-yl)methyl)-1H-pyrazol-4-yl)-1-(3-fluorophenethyl)-5,5-dimethylimidazolidine-2,4-dione]: the IC50 was 150 nM.

Regarding `COc1ccc(CN2C(=O)N(c3cnn(Cc4c(C)noc4C)c3)C(=O)C2(C)C)nc1` [Example 12-51, 3-(1-((3,5-dimethylisoxazol-4-yl)methyl)-1H-pyrazol-4-yl)-1-((5-methoxypyridin-2-yl)methyl)-5,5-dimethylimidazolidine-2,4-dione], the IC50 is 190 nM.

In the case of `Cc1noc(C)c1Cn1cc(N2C(=O)N(Cc3ccncc3)C(C)(C)C2=O)cn1` [Example 12-52, 3-(1-((3,5-dimethylisoxazol-4-yl)methyl)-1H-pyrazol-4-yl)-5,5-dimethyl-1-(pyridin-4-ylmethyl)imidazolidine-2,4-dione], the IC50 came to 190 nM.

As for `Cc1noc(C)c1Cn1cc(N2C(=O)N(CCc3ccccc3F)C(C)(C)C2=O)cn1` [Example 12-53, 3-(1-((3,5-dimethylisoxazol-4-yl)methyl)-1H-pyrazol-4-yl)-1-(2-fluorophenethyl)-5,5-dimethylimidazolidine-2,4-dione], the IC50 was found to be 200 nM.

Turning to `COc1ccc(OC)c(CN2C(=O)N(c3cnn(Cc4c(C)noc4C)c3)C(=O)C2(C)C)c1` [Example 12-54, 1-(2,5-dimethoxybenzyl)-3-(1-((3,5-dimethylisoxazol-4-yl)methyl)-1H-pyrazol-4-yl)-5,5-dimethylimidazolidine-2,4-dione], the IC50 was determined as 200 nM.

With `COC(=O)c1cccc(CN2C(=O)N(c3cnn(Cc4c(C)noc4C)c3)C(=O)C2(C)C)c1` [Example 12-55], the IC50 turned out to be 220 nM.

Regarding `Cc1noc(C)c1Cn1cc(N2C(=O)N(CCc3ccccc3)C(C)(C)C2=O)cn1` [Example 12-56, 3-(1-((3,5-dimethylisoxazol-4-yl)methyl)-1H-pyrazol-4-yl)-5,5-dimethyl-1-phenethylimidazolidine-2,4-dione], the IC50 came out at 230 nM.

Turning to `COC(=O)c1ccc(CN2C(=O)N(c3cnn(Cc4c(C)noc4C)c3)C(=O)C2(C)C)cc1` [Example 12-57, methyl 4-((3-(1-((3,5-dimethylisoxazol-4-yl)methyl)-1H-pyrazol-4-yl)-5,5-dimethyl-2,4-dioxoimidazolidin-1-yl)methyl)benzoate], the IC50 came out at 230 nM.

On to `COc1ccccc1CCN1C(=O)N(c2cnn(Cc3c(C)noc3C)c2)C(=O)C1(C)C` [Example 12-58, 3-(1-((3,5-dimethylisoxazol-4-yl)methyl)-1H-pyrazol-4-yl)-1-(2-methoxyphenethyl)-5,5-dimethylimidazolidine-2,4-dione], for which the 50% inhibitory concentration (IC50) was found to be 240 nM.

In the case of `Cc1noc(C)c1Cn1cc(N2C(=O)N(Cc3cc(F)ccc3F)C(C)(C)C2=O)cn1` [Example 12-59, 1-(2,5-difluorobenzyl)-3-(1-((3,5-dimethylisoxazol-4-yl)methyl)-1H-pyrazol-4-yl)-5,5-dimethylimidazolidine-2,4-dione], the IC50 worked out at 240 nM.

Turning to `COc1cccc(CCN2C(=O)N(c3cnn(Cc4c(C)noc4C)c3)C(=O)C2(C)C)c1` [Example 12-60, 3-(1-((3,5-dimethylisoxazol-4-yl)methyl)-1H-pyrazol-4-yl)-1-(3-methoxyphenethyl)-5,5-dimethylimidazolidine-2,4-dione], the IC50 is 250 nM.

Take `Cc1noc(C)c1Cn1cc(N2C(=O)N(Cc3ccccn3)C(C)(C)C2=O)cn1` [Example 12-61, 3-(1-((3,5-dimethylisoxazol-4-yl)methyl)-1H-pyrazol-4-yl)-5,5-dimethyl-1-(pyridin-2-ylmethyl)imidazolidine-2,4-dione]: the IC50 came out at 260 nM.

With `Cc1noc(C)c1Cn1cc(N2C(=O)N(Cc3ccc4c(c3)OCCO4)C(C)(C)C2=O)cn1` [Example 12-62, 1-((2,3-dihydrobenzo[b][1,4]dioxin-6-yl)methyl)-3-(1-((3,5-dimethylisoxazol-4-yl)methyl)-1H-pyrazol-4-yl)-5,5-dimethylimidazolidine-2,4-dione], the half-maximal inhibitory concentration (IC50) is 270 nM.

For the compound `Cc1noc(C)c1Cn1cc(N2C(=O)N(Cc3cccc(OCCO)c3)C(C)(C)C2=O)cn1` [Example 12-63, 3-(1-((3,5-dimethylisoxazol-4-yl)methyl)-1H-pyrazol-4-yl)-1-(3-(2-hydroxyethoxy)benzyl)-5,5-dimethylimidazolidine-2,4-dione], the IC50 came to 280 nM.

For the compound `COc1cccc(CN2C(=O)N(c3cnn(Cc4c(C)noc4C)c3)C(=O)C2(C)C)c1OC` [Example 12-64, 1-(2,3-dimethoxybenzyl)-3-(1-((3,5-dimethylisoxazol-4-yl)methyl)-1H-pyrazol-4-yl)-5,5-dimethylimidazolidine-2,4-dione], the IC50 was 300 nM.

Consider `COc1cccc(F)c1CN1C(=O)N(c2cnn(Cc3c(C)noc3C)c2)C(=O)C1(C)C` [Example 12-65, 3-(1-((3,5-dimethylisoxazol-4-yl)methyl)-1H-pyrazol-4-yl)-1-(2-fluoro-6-methoxybenzyl)-5,5-dimethylimidazolidine-2,4-dione], for which the concentration for half-maximal inhibition (IC50) was 310 nM.

Take `Cc1noc(C)c1Cn1cc(N2C(=O)N(Cc3cccc(F)c3F)C(C)(C)C2=O)cn1` [Example 12-66, 1-(2,3-difluorobenzyl)-3-(1-((3,5-dimethylisoxazol-4-yl)methyl)-1H-pyrazol-4-yl)-5,5-dimethylimidazolidine-2,4-dione]: the IC50 worked out at 310 nM.

On to `Cc1noc(C)c1Cn1cc(N2C(=O)N(Cc3ccccc3)C(C)(C)C2=O)cn1` [Example 12-67, 1-benzyl-3-(1-((3,5-dimethylisoxazol-4-yl)methyl)-1H-pyrazol-4-yl)-5,5-dimethylimidazolidine-2,4-dione], for which the IC50 was found to be 320 nM.

For `Cc1noc(C)c1Cn1cc(N2C(=O)N(CCc3ccc(F)cc3)C(C)(C)C2=O)cn1` [Example 12-69, 3-(1-((3,5-dimethylisoxazol-4-yl)methyl)-1H-pyrazol-4-yl)-1-(4-fluorophenethyl)-5,5-dimethylimidazolidine-2,4-dione], the IC50 amounted to 330 nM.

Take `Cc1noc(C)c1Cn1cc(N2C(=O)N(CCc3cc(F)cc(F)c3)C(C)(C)C2=O)cn1` [Example 12-70, 1-(3,5-difluorophenethyl)-3-(1-((3,5-dimethylisoxazol-4-yl)methyl)-1H-pyrazol-4-yl)-5,5-dimethylimidazolidine-2,4-dione]: the IC50 stood at 400 nM.

As to `Cc1noc(C)c1Cn1cc(N2C(=O)N(Cc3ccn(C)n3)C(C)(C)C2=O)cn1` [Example 12-71, 3-(1-((3,5-dimethylisoxazol-4-yl)methyl)-1H-pyrazol-4-yl)-5,5-dimethyl-1-((1-methyl-1H-pyrazol-3-yl)methyl)imidazolidine-2,4-dione], the IC50 worked out at 420 nM.

Consider `Cc1noc(C)c1Cn1cc(N2C(=O)N(Cc3cccc(O)n3)C(C)(C)C2=O)cn1` [Example 12-72, 3-(1-((3,5-dimethylisoxazol-4-yl)methyl)-1H-pyrazol-4-yl)-1-((6-hydroxypyridin-2-yl)methyl)-5,5-dimethylimidazolidine-2,4-dione], for which the IC50 came to 440 nM.

Take `Cc1noc(C)c1Cn1cc(N2C(=O)N(Cc3cccc(C(=O)O)c3)C(C)(C)C2=O)cn1` [Example 12-73, 3-((3-(1-((3,5-dimethylisoxazol-4-yl)methyl)-1H-pyrazol-4-yl)-5,5-dimethyl-2,4-dioxoimidazolidin-1-yl)methyl)benzoic acid]: the IC50 came out at 460 nM.

The record behind these values is patent US9247759B2, “Identification of human T2R receptors that respond to bitter compounds that elicit the bitter taste in compositions, and the use thereof in assays to identify compounds that inhibit (block) bitter taste in compositions and use thereof” (SENOMYX, INC., priority 2007, dated 2016).
